Assay results: patent publication US20080064667A1, “OXAZOLE DERIVATIVES OF TETRACYCLINES” (Wyeth, priority 2003, published 2008)
≈ marks a conversion by molar mass, not a printed value.

Experiments:
Test in all cases: MIC, broth microdilution (NCCLS)
Assay type in all cases: cell-based
[1] = system: S. aureus GC4536 (Smith MP -In Vivo); conditions: Staphylococcus aureus, Mueller-Hinton II broth, 18-22 hours at 35° C.
Procedure: (§1) Methods for in Vitro Antibacterial Evaluation
(§2) The Minimum Inhibitory Concentration (MIC)
(§3) Antimicrobial susceptibility testing. The in vitro activities of the antibiotics are determined by the broth microdilution method as recommended by the National Committee for Clinical Laboratory Standards (NCCLS) (1). Mueller-Hinton II broth (MHBII)(BBL Cockeysville, Md.) is the medium employed in the testing procedures. Microtiter plates containing serial dilutions of each antimicrobial agent are inoculated with each organism to yield the appropriate density (10^5 CFU/ml) in a 100 μl final volume. The plates are incubated for 18-22 hours at 35° C. in ambient air.
(§4) 1. NCCLS. 2000. Methods for Dilution Antimicrobial Susceptibility Tests for Bacteria That Grow Aerobically; Approved Standards: M7-A5, vol. 20. National Committe for Clinical Laboratory Standards, Wayne, Pa.

[2] = system: E. faecalis GC2242 (Van-resistant); conditions: Enterococcus faecalis, Mueller-Hinton II broth, 18-22 hours at 35° C.
Procedure: as §1, §2, §3, §4

[3] = system: M. catarrhalis* GC6907 (Clinical); conditions: Moraxella catarrhalis, Mueller-Hinton II broth, 18-22 hours at 35° C.
Procedure: as §1, §2, §3, §4

[4] = system: S. aureus GC6466 (tet(M)); conditions: Staphylococcus aureus, Mueller-Hinton II broth, 18-22 hours at 35° C.
Procedure: as §1, §2, §3, §4

[5] = system: S. pneumoniae* GC4465 (Clinical); conditions: Streptococcus pneumoniae, Mueller-Hinton II broth, 18-22 hours at 35° C.
Procedure: as §1, §2, §3, §4

[6] = system: S. pyogenes* GC4563 (Clinical); conditions: Streptococcus pyogenes, Mueller-Hinton II broth, 18-22 hours at 35° C.
Procedure: as §1, §2, §3, §4

[7] = system: H. influenzae<> GC6896 (ATCC Control); conditions: Haemophilus influenzae, Mueller-Hinton II broth, 18-22 hours at 35° C.
Procedure: as §1, §2, §3, §4

[8] = system: E. faecalis GC4555 (ATCC Control); conditions: Enterococcus faecalis, Mueller-Hinton II broth, 18-22 hours at 35° C.
Procedure: as §1, §2, §3, §4

[9] = system: S. aureus GC1131 (Clinical); conditions: Staphylococcus aureus, Mueller-Hinton II broth, 18-22 hours at 35° C.
Procedure: as §1, §2, §3, §4

[10] = system: C. albicans GC3066 ATCC (Control); conditions: Candida albicans, Mueller-Hinton II broth, 18-22 hours at 35° C.
Procedure: as §1, §2, §3, §4

[11] = system: S. aureus GC2216 (ATCC Control); conditions: Staphylococcus aureus, Mueller-Hinton II broth, 18-22 hours at 35° C.
Procedure: as §1, §2, §3, §4

E. coli GC2270 (tet(M)) = conditions: Escherichia coli
Procedure: as §1, §2, §3, §4

[12] = system: S. pneumoniae* GC1894 (Clinical); conditions: Streptococcus pneumoniae, Mueller-Hinton II broth, 18-22 hours at 35° C.
Procedure: as §1, §2, §3, §4

[13] = system: E. coli GC2203 (ATCC Control); conditions: Escherichia coli, Mueller-Hinton II broth, 18-22 hours at 35° C.
Procedure: as §1, §2, §3, §4

[14] = system: S. aureus GC1079 (tet(K)); conditions: Staphylococcus aureus, Mueller-Hinton II broth, 18-22 hours at 35° C.
Procedure: as §1, §2, §3, §4

E. coli GC1073 (tet(B)) = conditions: Escherichia coli
Procedure: as §1, §2, §3, §4

[15] = system: E. coli GC4560 (IMP mutant); conditions: Escherichia coli
Procedure: as §1, §2, §3, §4

[16] = system: E. coli GC4559 (parent GC4560); conditions: Escherichia coli, Mueller-Hinton II broth, 18-22 hours at 35° C.
Procedure: as §1, §2, §3, §4

Structure (SMILES) | MIC [1] [µg/mL] | MIC [2] [µg/mL] | MIC [3] [µg/mL] | MIC [4] [µg/mL] | MIC [5] [µg/mL] | MIC [6] [µg/mL] | MIC [7] [µg/mL] | MIC [8] [µg/mL] | MIC [9] [µg/mL] | MIC [10] [µg/mL] | MIC [11] [µg/mL] | MIC (E. coli GC2270 (tet(M))) [µg/mL] | MIC [12] [µg/mL] | MIC [13] [µg/mL] | MIC [14] [µg/mL] | MIC (E. coli GC1073 (tet(B))) [µg/mL] | MIC [15] [µg/mL] | MIC [16] [µg/mL]
COc1ccc(/C=C/c2nc3cc(N(C)C)c4c(c3o2)C(=O)C2=C(O)[C@]3(O)C(=O)C(C(N)=O)=C(O)[C@@H](N(C)C)[C@@H]3C[C@@H]2C4)cc1 [Example 26, (6aR,7aS,8S,11aS)-5,8-bis(dimethylamino)-9,11a,12-trihydroxy-2-[(E)-2-(4-methoxyphenyl)ethenyl]-11,13-dioxo-6,6a,7,7a,8,11,11a,13-octahydrotetraceno[2,1-d][1,3]oxazole-10-carboxamide] | 32 (≈ 52.1 µM) | 16 (≈ 26 µM) | > 64 | 16 (≈ 26 µM) | > 64 | 64 (≈ 104 µM) | > 64 | 32 (≈ 52.1 µM) | 16 (≈ 26 µM) | > 64 | 16 (≈ 26 µM) | > 64 | > 64 | > 64 | 32 (≈ 52.1 µM) | > 64 | 32 (≈ 52.1 µM) | > 64
COc1cccc(/C=C/c2nc3cc(N(C)C)c4c(c3o2)C(=O)C2=C(O)[C@]3(O)C(=O)C(C(N)=O)=C(O)[C@@H](N(C)C)[C@@H]3C[C@@H]2C4)c1 [Example 27, (6aR,7aS,8S,11aS)-5,8-bis(dimethylamino)-9,11a,12-trihydroxy-2-[(E)-2-(3-methoxyphenyl)ethenyl]-11,13-dioxo-6,6a,7,7a,8,11,11a,13-octahydrotetraceno[2,1-d][1,3]oxazole-10-carboxamide] | 16 (≈ 26 µM) | 8 (≈ 13 µM) | > 64 | 16 (≈ 26 µM) | 64 (≈ 104 µM) | 64 (≈ 104 µM) | > 64 | 16 (≈ 26 µM) | 8 (≈ 13 µM) | > 64 | 8 (≈ 13 µM) | > 64 | 64 (≈ 104 µM) | > 64 | 8 (≈ 13 µM) | > 64 | 32 (≈ 52.1 µM) | > 64
COc1ccccc1/C=C/c1nc2cc(N(C)C)c3c(c2o1)C(=O)C1=C(O)[C@]2(O)C(=O)C(C(N)=O)=C(O)[C@@H](N(C)C)[C@@H]2C[C@@H]1C3 [Example 28, (6aR,7aS,8S,11aS)-5,8-bis(dimethylamino)-9,11a,12-trihydroxy-2-[(E)-2-(2-methoxyphenyl)ethenyl]-11,13-dioxo-6,6a,7,7a,8,11,11a,13-octahydrotetraceno[2,1-d][1,3]oxazole-10-carboxamide] | 16 (≈ 26 µM) | 8 (≈ 13 µM) | 64 (≈ 104 µM) | 8 (≈ 13 µM) | 32 (≈ 52.1 µM) | 16 (≈ 26 µM) | > 64 | 16 (≈ 26 µM) | 8 (≈ 13 µM) | > 64 | 8 (≈ 13 µM) | > 64 | 64 (≈ 104 µM) | > 64 | 16 (≈ 26 µM) | > 64 | 16 (≈ 26 µM) | > 64
CN(C)c1cc2nc(/C=C/c3ccc(F)cc3)oc2c2c1C[C@H]1C[C@H]3[C@H](N(C)C)C(O)=C(C(N)=O)C(=O)[C@@]3(O)C(O)=C1C2=O [Example 29, (6aR,7aS,8S,11aS)-5,8-bis(dimethylamino)-2-[(E)-2-(4-fluorophenyl)ethenyl]-9,11a,12-trihydroxy-11,13-dioxo-6,6a,7,7a,8,11,11a,13-octahydrotetraceno[2,1-d][1,3]oxazole-10-carboxamide] | 8 (≈ 13.3 µM) | 8 (≈ 13.3 µM) | 16 (≈ 26.6 µM) | 8 (≈ 13.3 µM) | 32 (≈ 53.1 µM) | 16 (≈ 26.6 µM) | > 64 | 8 (≈ 13.3 µM) | 8 (≈ 13.3 µM) | > 64 | 8 (≈ 13.3 µM) | > 64 | 32 (≈ 53.1 µM) | > 64 | 8 (≈ 13.3 µM) | > 64 | 8 (≈ 13.3 µM) | > 64
